Data reported in patent US12139520B2 (priority 2020, dated 2024).
Bridge positions count the residues as written; N and C are the ends. Square brackets hold non-standard residues; d marks the D form. Peptide text beside a SMILES is read from it. Hyp = O=C(O)[C@@H]1C[C@@H](O)CN1; Cit = NC(=O)NCCC[C@H](N)C(=O)O

Key:
[1] = molecular target: T1, hAMY3 receptor (Homo sapiens, UniProt O60896+P30988); assay: cAMP assay for in vitro receptor activation, hAMY3-R; format: cell-based; conditions: cAMP assay, hAMY3 receptor; read-out: hAMY3R EC50
T1 sequence (P30988 25-474): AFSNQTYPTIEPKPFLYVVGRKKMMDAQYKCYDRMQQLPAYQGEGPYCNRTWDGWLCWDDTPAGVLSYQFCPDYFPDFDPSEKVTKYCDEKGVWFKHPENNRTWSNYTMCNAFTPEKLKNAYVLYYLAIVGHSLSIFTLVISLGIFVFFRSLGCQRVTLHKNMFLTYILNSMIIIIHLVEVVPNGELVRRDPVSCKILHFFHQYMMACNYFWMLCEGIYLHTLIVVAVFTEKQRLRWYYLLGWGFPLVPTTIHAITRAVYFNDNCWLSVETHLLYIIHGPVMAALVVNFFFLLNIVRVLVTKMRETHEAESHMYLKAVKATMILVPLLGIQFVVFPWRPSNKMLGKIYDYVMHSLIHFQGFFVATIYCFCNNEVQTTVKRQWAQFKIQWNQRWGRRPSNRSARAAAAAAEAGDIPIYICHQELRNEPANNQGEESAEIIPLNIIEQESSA
T1 sequence (O60896 24-148 partner): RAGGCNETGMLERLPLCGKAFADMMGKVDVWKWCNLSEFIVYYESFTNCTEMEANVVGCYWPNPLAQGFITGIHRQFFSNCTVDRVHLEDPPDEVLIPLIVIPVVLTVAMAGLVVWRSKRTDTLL
How it was run: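 Stable hAMY3 cells; DPBS + 0.05% casein + 0.5 mM IBMX; graded compound doses, 30 min, RT; cAMP via HTRF Gs kit, TR-FRET read at 1 h.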

[2] = Physical stability of peptide analogues (Thioflavin T fibrillation); format: physicochemical; conditions: maximum ThT signal normalized between hAMY maximum and buffer background; 40° C., shaking, four days; pH 7 per table title
How it was run: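 Samples are stressed at 40 °C for four days, being shaken at 700 rpm before each 10-min fluorescence reading of 4 μM Thioflavin T. Buffers were pH 4 acetate or pH 7 phosphate. Reported values are smoothed maximum ThT signals as a percentage of the hAMY-to-background range.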

SMILES | EC50 [1] | Max ThT signal (%) [2]
CC(C)C[C@H](NC(=O)[C@H](CCCNC(N)=O)NC(=O)[C@H](CCC(N)=O)NC(=O)[C@@H](NC(=O)[C@@H](NC(=O)[C@@H]1CSSC[C@H](NC(=O)CN)C(=O)N[C@@H](CCCNC(=N)N)C(=O)N[C@@H](Cc2ccccc2)C(=O)NCC(=O)N[C@@H]([C@@H](C)O)C(=O)N1)[C@@H](C)O)C(C)C)C(=O)N[C@@H](C)C(=O)N[C@@H](Cc1c[nH]cn1)C(=O)N[C@@H](Cc1ccccc1)C(=O)N[C@@H](CC(C)C)C(=O)N[C@@H](Cc1ccc(O)cc1)C(=O)N[C@@H](CCC(N)=O)C(=O)N[C@@H](Cc1ccccc1)C(=O)N[C@H](C(=O)N[C@@H](CC(=O)O)C(=O)N[C@@H](CCCCN)C(=O)N[C@@H](CC(=O)O)C(=O)N[C@@H](CCCCN)C(=O)N[C@@H](CC(=O)O)C(=O)N[C@@H](CC(N)=O)C(=O)N[C@H](C(=O)N[C@@H](C)C(=O)N1CCC[C@H]1C(=O)N[C@@H](CCCNC(=N)N)C(=O)N[C@H](C(=O)N[C@@H](CCCCN)C(=O)N[C@H](C(=O)NCC(=O)N[C@@H](CO)C(=O)N[C@@H](CC(N)=O)C(=O)NCC(=O)N[C@@H](Cc1ccc(O)cc1)C(N)=O)C(C)C)[C@@H](C)O)C(C)C)[C@@H](C)O [compound 279] (H-GCRFGTCTVQ[Cit]LAHFLYQFTDKDKDNVAPRTKVGSNGY-NH2; disulfide 2-7; N-terminus assumed) | 0.013 nM | 13.450%
CC[C@H](C)[C@H](NC(=O)[C@H](CCC(N)=O)NC(=O)[C@H](Cc1c[nH]cn1)NC(=O)[C@H](C)NC(=O)[C@H](CC(C)C)NC(=O)[C@H](CCCNC(=N)N)NC(=O)[C@H](CCC(N)=O)NC(=O)[C@@H](NC(=O)[C@@H](NC(=O)[C@@H]1CSSC[C@H](NC(=O)CN)C(=O)N[C@@H](CCCNC(=N)N)C(=O)N[C@@H](Cc2ccccc2)C(=O)NCC(=O)N[C@@H]([C@@H](C)O)C(=O)N1)[C@@H](C)O)C(C)C)C(=O)N[C@@H](Cc1ccc(O)cc1)C(=O)N[C@@H](CCC(N)=O)C(=O)N[C@@H](Cc1ccccc1)C(=O)N[C@H](C(=O)N[C@@H](CC(=O)O)C(=O)N[C@@H](CCCCN)C(=O)N[C@@H](CC(=O)O)C(=O)N[C@@H](CCCCN)C(=O)N[C@@H](CC(=O)O)C(=O)N[C@@H](CC(N)=O)C(=O)N[C@H](C(=O)N[C@@H](C)C(=O)N1CCC[C@H]1C(=O)N[C@@H](CCCNC(=N)N)C(=O)N[C@@H](CO)C(=O)N[C@@H](CC(N)=O)C(=O)N[C@H](C(=O)NCC(=O)N1CCC[C@H]1C(=O)N[C@@H](CCC(N)=O)C(=O)NCC(=O)N1C[C@H](O)C[C@H]1C(N)=O)C(C)C)C(C)C)[C@@H](C)O [compound 135] (H-GCRFGTCTVQRLAHQIYQFTDKDKDNVAPRSNVGPQG[Hyp]-NH2; disulfide 2-7; N-terminus assumed) | 0.033 nM | 3.300%
CC[C@H](C)[C@H](NC(=O)[C@H](CCC(N)=O)NC(=O)[C@H](Cc1c[nH]cn1)NC(=O)[C@H](C)NC(=O)[C@H](CC(C)C)NC(=O)[C@H](CCCNC(=N)N)NC(=O)[C@H](CCC(N)=O)NC(=O)[C@@H](NC(=O)[C@@H](NC(=O)[C@@H]1CSSC[C@H](NC(=O)CN)C(=O)N[C@@H](CCCNC(=N)N)C(=O)N[C@@H]([C@@H](C)O)C(=O)NCC(=O)N[C@@H]([C@@H](C)O)C(=O)N1)[C@@H](C)O)C(C)C)C(=O)N[C@@H](Cc1ccc(O)cc1)C(=O)N[C@@H](CCC(N)=O)C(=O)N[C@@H](Cc1ccccc1)C(=O)N[C@H](C(=O)N[C@@H](CC(=O)O)C(=O)N[C@@H](CCCCN)C(=O)N[C@@H](CC(=O)O)C(=O)N[C@@H](CCCCN)C(=O)N[C@@H](CC(=O)O)C(=O)N[C@@H](CC(N)=O)C(=O)N[C@H](C(=O)N[C@@H](C)C(=O)N1CCC[C@H]1C(=O)N[C@@H](CCCNC(=N)N)C(=O)N[C@H](C(=O)N[C@@H](CC(N)=O)C(=O)N[C@H](C(=O)N[C@@H](CO)C(=O)N1CCC[C@H]1C(=O)N[C@@H](CCC(N)=O)C(=O)NCC(=O)N1C[C@H](O)C[C@H]1C(N)=O)[C@@H](C)CC)[C@@H](C)O)C(C)C)[C@@H](C)O [compound 214] (H-GCRTGTCTVQRLAHQIYQFTDKDKDNVAPRTNISPQG[Hyp]-NH2; disulfide 2-7; N-terminus assumed) | 0.157 nM | 2.700%

Now from value to molecule:

EC50 [1] | Max ThT signal (%) [2] | SMILES
0.076 nM | 6.800% | CC[C@H](C)[C@H](NC(=O)[C@H](CCC(N)=O)NC(=O)[C@H](Cc1c[nH]cn1)NC(=O)[C@H](C)NC(=O)[C@H](CC(C)C)NC(=O)[C@H](CCCNC(=N)N)NC(=O)[C@H](CCC(N)=O)NC(=O)[C@@H](NC(=O)[C@@H](NC(=O)[C@@H]1CSSC[C@H](NC(=O)CN)C(=O)N[C@@H](CCCNC(=N)N)C(=O)N[C@@H]([C@@H](C)O)C(=O)NCC(=O)N[C@@H]([C@@H](C)O)C(=O)N1)[C@@H](C)O)C(C)C)C(=O)N[C@@H](Cc1ccc(O)cc1)C(=O)N[C@@H](CCC(N)=O)C(=O)N[C@@H](Cc1ccccc1)C(=O)N[C@H](C(=O)N[C@@H](CC(=O)O)C(=O)N[C@@H](CCCCN)C(=O)N[C@@H](CC(=O)O)C(=O)N[C@@H](CCCCN)C(=O)N[C@@H](CC(=O)O)C(=O)N[C@@H](CC(N)=O)C(=O)N[C@H](C(=O)N[C@@H](C)C(=O)N1CCC[C@H]1C(=O)N[C@@H](CCCNC(=N)N)C(=O)N[C@H](C(=O)N[C@@H](CC(N)=O)C(=O)N[C@H](C(=O)N[C@@H](CO)C(=O)N1CCC[C@H]1C(=O)N[C@@H](CCC(N)=O)C(=O)NCC(=O)N[C@@H](Cc1ccc(O)cc1)C(N)=O)C(C)C)[C@@H](C)O)C(C)C)[C@@H](C)O [compound 176] (H-GCRTGTCTVQRLAHQIYQFTDKDKDNVAPRTNVSPQGY-NH2; disulfide 2-7; N-terminus assumed)
0.068 nM | 3.700% | CC[C@H](C)[C@H](NC(=O)[C@H](CCCCN)NC(=O)[C@@H](NC(=O)[C@H](CCCNC(=N)N)NC(=O)[C@@H]1CCCN1C(=O)[C@H](C)NC(=O)[C@@H](NC(=O)[C@H](CC(N)=O)NC(=O)[C@H](CC(=O)O)NC(=O)[C@H](CCCCN)NC(=O)[C@H](CC(=O)O)NC(=O)[C@H](CCCCN)NC(=O)[C@H](CC(=O)O)NC(=O)[C@@H](NC(=O)[C@H](Cc1ccccc1)NC(=O)[C@H](CCC(N)=O)NC(=O)[C@H](Cc1ccc(O)cc1)NC(=O)[C@@H](NC(=O)[C@H](CCC(N)=O)NC(=O)[C@H](Cc1c[nH]cn1)NC(=O)[C@H](C)NC(=O)[C@H](CC(C)C)NC(=O)[C@H](CCCNC(=N)N)NC(=O)[C@H](CCC(N)=O)NC(=O)[C@@H](NC(=O)[C@@H](NC(=O)[C@@H]1CSSC[C@H](NC(=O)CN)C(=O)N[C@@H](CCCNC(=N)N)C(=O)N[C@@H](Cc2ccccc2)C(=O)NCC(=O)N[C@@H]([C@@H](C)O)C(=O)N1)[C@@H](C)O)C(C)C)[C@@H](C)CC)[C@@H](C)O)C(C)C)[C@@H](C)O)C(=O)NCC(=O)N1CCC[C@H]1C(=O)N[C@@H](CCC(N)=O)C(=O)NCC(=O)N[C@@H](Cc1ccc(O)cc1)C(N)=O [compound 391] (H-GCRFGTCTVQRLAHQIYQFTDKDKDNVAPRTKIGPQGY-NH2; disulfide 2-7; N-terminus assumed)
0.047 nM | 15.300% | CC[C@H](C)[C@H](NC(=O)[C@H](CCC(N)=O)NC(=O)[C@H](Cc1c[nH]cn1)NC(=O)[C@H](C)NC(=O)[C@H](CC(C)C)NC(=O)[C@H](CCCNC(=N)N)NC(=O)[C@H](CCC(N)=O)NC(=O)[C@@H](NC(=O)[C@@H](NC(=O)[C@@H]1CSSC[C@H](NC(=O)CN)C(=O)N[C@@H](CCCNC(=N)N)C(=O)N[C@@H]([C@@H](C)O)C(=O)NCC(=O)N[C@@H]([C@@H](C)O)C(=O)N1)[C@@H](C)O)C(C)C)C(=O)N[C@@H](Cc1ccc(O)cc1)C(=O)N[C@@H](CCC(N)=O)C(=O)N[C@@H](Cc1ccccc1)C(=O)N[C@H](C(=O)N[C@@H](CC(=O)O)C(=O)N[C@@H](CCCCN)C(=O)N[C@@H](CC(=O)O)C(=O)N[C@@H](CCCCN)C(=O)N[C@@H](CC(=O)O)C(=O)N[C@@H](CC(N)=O)C(=O)N[C@H](C(=O)N[C@@H](C)C(=O)N1CCC[C@H]1C(=O)N[C@@H](CCCNC(=N)N)C(=O)N[C@H](C(=O)N[C@@H](CCCCN)C(=O)N[C@H](C(=O)NCC(=O)N1CCC[C@H]1C(=O)N[C@@H](CCC(N)=O)C(=O)NCC(=O)N[C@@H](Cc1ccc(O)cc1)C(N)=O)C(C)C)[C@@H](C)O)C(C)C)[C@@H](C)O [compound 156] (H-GCRTGTCTVQRLAHQIYQFTDKDKDNVAPRTKVGPQGY-NH2; disulfide 2-7; N-terminus assumed)
